In the kinase profiling compilation of Christmann-Franck et al. (2016):

What was measured:
Assay in all cases: radiometric filter-binding kinase assay, Kinase HotSpot
Conditions in all cases: compound 0.5 µM; ATP 10 µM
CAMK2D (human) = CAMK2D (human) (UniProt Q13557)
CDK7 CCNH MNAT1 (human) = CDK7 CCNH MNAT1 (human) (UniProt P50613+P51948+P51946)
AKT1 (human) = AKT1 (human) (UniProt P31749)
PHKG1 (human) = PHKG1 (human) (UniProt Q16816)
AURKA (human) = AURKA (human) (UniProt O14965)
PIM1 (human) = PIM1 (human) (UniProt P11309)
ERBB2 (human) = ERBB2 (human) (UniProt P04626)
MERTK (human) = MERTK (human) (UniProt Q12866)
MAPK3 (human) = MAPK3 (human) (UniProt P27361)
PRKCA (human) = PRKCA (human) (UniProt P17252)
CSF1R (human) = CSF1R (human) (UniProt P07333)
SLK (human) = SLK (human) (UniProt Q9H2G2)
INSR (human) = INSR (human) (UniProt P06213)
RAF1 (human) = RAF1 (human) (UniProt P04049)
NEK3 (human) = NEK3 (human) (UniProt P51956)
MAPKAPK3 (human) = MAPKAPK3 (human) (UniProt Q16644)
MAPKAPK3 (human), sequence (Q16644 whole entry, looked up): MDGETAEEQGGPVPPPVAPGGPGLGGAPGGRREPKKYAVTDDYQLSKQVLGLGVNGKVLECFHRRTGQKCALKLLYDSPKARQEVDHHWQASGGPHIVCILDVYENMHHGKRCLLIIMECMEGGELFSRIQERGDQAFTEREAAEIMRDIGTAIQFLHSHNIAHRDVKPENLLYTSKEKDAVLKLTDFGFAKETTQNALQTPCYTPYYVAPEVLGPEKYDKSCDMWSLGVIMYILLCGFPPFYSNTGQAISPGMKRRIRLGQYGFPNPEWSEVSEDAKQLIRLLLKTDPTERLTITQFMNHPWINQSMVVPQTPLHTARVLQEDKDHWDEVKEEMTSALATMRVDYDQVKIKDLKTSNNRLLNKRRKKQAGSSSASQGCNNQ

SRPK3 (human) = SRPK3 (human) (UniProt Q9UPE1)
EPHA8 (human) = EPHA8 (human) (UniProt P29322)
CSNK1G1 (human) = CSNK1G1 (human) (UniProt Q9HCP0)
CSNK1G1 (human), sequence (Q9HCP0 whole entry, looked up): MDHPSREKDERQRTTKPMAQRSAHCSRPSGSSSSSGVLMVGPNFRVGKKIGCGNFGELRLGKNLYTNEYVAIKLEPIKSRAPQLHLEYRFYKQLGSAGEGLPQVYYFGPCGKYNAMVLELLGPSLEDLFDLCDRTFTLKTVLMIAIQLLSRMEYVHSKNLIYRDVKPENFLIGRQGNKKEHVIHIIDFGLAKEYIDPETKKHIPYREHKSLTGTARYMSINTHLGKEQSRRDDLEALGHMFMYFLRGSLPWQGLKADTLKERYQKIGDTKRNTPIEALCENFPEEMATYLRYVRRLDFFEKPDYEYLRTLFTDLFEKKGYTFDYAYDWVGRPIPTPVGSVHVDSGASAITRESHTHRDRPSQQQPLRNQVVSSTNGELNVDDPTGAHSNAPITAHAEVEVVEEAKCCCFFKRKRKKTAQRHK

PBK (human) = PBK (human) (UniProt Q96KB5)
[1] = biological target: JAK1 JH1 catalytic (human) (UniProt P23458)
JAK1 JH1 catalytic (human), sequence (P23458 whole entry, looked up): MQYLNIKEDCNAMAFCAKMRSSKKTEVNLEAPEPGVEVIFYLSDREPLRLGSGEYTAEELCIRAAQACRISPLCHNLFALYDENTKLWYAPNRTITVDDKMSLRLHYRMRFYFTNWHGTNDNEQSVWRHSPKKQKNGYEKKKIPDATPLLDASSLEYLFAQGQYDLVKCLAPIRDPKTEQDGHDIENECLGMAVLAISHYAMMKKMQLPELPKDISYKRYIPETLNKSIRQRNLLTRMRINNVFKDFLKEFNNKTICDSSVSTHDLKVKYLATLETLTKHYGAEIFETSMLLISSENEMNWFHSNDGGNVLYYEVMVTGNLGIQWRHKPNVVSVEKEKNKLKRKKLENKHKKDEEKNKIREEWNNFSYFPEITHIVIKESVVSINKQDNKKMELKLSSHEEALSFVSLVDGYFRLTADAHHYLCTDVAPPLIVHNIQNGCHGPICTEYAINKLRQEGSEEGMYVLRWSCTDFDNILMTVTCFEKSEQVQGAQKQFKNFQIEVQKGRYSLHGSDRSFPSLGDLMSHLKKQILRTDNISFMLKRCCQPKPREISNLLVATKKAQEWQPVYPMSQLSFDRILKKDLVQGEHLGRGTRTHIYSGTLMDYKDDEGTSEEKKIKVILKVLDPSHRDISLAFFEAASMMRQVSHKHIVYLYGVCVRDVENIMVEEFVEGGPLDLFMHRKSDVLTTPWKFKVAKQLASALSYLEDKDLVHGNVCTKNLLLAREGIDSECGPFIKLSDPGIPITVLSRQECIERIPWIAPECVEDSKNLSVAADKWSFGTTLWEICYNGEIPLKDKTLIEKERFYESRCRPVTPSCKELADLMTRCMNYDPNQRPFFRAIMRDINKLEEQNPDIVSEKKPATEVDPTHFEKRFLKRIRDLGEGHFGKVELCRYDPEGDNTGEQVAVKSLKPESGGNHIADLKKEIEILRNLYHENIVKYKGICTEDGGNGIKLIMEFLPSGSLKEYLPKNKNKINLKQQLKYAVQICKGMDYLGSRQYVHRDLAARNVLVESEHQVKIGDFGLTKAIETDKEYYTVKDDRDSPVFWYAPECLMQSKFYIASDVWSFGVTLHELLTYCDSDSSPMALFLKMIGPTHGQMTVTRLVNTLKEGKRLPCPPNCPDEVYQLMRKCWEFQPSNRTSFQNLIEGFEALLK

NEK6 (human) = NEK6 (human) (UniProt Q9HC98)
MAPK11 (human) = MAPK11 (human) (UniProt Q15759)
NTRK2 (human) = NTRK2 (human) (UniProt Q16620)
GSK3B (human) = GSK3B (human) (UniProt P49841)
PKN2 (human) = PKN2 (human) (UniProt Q16513)
MAP2K1 (human) = MAP2K1 (human) (UniProt Q02750)
MAP2K1 (human), sequence (Q02750 whole entry, looked up): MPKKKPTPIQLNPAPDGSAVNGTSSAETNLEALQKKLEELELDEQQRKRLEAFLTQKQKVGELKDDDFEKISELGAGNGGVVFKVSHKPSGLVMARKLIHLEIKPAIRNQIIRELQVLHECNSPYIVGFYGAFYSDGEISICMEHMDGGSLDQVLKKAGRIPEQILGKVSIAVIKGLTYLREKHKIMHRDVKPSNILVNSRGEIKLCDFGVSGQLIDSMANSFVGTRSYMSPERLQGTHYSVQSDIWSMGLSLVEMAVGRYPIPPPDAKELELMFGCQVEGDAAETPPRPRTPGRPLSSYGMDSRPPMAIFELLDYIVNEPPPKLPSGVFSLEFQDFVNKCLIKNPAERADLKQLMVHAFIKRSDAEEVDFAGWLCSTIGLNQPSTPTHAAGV

STK16 (human) = STK16 (human) (UniProt O75716)
STK16 (human), sequence (O75716 whole entry, looked up): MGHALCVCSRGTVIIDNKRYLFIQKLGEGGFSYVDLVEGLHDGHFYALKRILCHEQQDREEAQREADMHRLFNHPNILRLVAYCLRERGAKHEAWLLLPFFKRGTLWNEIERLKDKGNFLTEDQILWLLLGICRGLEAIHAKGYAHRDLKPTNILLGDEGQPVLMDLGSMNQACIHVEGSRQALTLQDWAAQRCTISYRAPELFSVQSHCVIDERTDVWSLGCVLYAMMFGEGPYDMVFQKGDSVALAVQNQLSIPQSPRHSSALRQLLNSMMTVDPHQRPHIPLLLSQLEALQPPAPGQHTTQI

EPHB3 (human) = EPHB3 (human) (UniProt P54753)
PLK1 (human) = PLK1 (human) (UniProt P53350)
AURKC (human) = AURKC (human) (UniProt Q9UQB9)
MAPKAPK5 (human) = MAPKAPK5 (human) (UniProt Q8IW41)
HIPK1 (human) = HIPK1 (human) (UniProt Q86Z02)
OXSR1 (human) = OXSR1 (human) (UniProt O95747)
PRKCH (human) = PRKCH (human) (UniProt P24723)
PRKCH (human), sequence (P24723 whole entry, looked up): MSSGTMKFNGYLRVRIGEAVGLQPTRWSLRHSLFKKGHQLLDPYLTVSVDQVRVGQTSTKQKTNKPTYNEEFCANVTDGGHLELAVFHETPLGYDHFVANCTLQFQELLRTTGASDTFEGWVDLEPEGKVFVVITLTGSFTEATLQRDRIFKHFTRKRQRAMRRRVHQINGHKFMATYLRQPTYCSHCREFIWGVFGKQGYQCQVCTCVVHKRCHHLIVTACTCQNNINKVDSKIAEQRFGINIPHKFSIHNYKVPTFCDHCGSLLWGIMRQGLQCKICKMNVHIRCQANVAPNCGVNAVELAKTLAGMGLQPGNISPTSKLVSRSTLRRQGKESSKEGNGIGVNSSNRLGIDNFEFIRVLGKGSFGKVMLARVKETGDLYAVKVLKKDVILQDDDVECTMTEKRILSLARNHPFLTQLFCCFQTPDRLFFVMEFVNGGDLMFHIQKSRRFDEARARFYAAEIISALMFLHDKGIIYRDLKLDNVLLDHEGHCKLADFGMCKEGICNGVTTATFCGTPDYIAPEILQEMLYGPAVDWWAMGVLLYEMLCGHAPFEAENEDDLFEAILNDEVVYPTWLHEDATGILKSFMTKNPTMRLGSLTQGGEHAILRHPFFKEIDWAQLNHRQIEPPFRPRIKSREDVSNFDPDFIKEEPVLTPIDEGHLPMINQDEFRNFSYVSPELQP

IRAK4 (human) = IRAK4 (human) (UniProt Q9NWZ3)
DYRK1B (human) = DYRK1B (human) (UniProt Q9Y463)
MLTK (human) = MLTK (human) (UniProt Q9NYL2)
MLTK (human), sequence (Q9NYL2 whole entry, looked up): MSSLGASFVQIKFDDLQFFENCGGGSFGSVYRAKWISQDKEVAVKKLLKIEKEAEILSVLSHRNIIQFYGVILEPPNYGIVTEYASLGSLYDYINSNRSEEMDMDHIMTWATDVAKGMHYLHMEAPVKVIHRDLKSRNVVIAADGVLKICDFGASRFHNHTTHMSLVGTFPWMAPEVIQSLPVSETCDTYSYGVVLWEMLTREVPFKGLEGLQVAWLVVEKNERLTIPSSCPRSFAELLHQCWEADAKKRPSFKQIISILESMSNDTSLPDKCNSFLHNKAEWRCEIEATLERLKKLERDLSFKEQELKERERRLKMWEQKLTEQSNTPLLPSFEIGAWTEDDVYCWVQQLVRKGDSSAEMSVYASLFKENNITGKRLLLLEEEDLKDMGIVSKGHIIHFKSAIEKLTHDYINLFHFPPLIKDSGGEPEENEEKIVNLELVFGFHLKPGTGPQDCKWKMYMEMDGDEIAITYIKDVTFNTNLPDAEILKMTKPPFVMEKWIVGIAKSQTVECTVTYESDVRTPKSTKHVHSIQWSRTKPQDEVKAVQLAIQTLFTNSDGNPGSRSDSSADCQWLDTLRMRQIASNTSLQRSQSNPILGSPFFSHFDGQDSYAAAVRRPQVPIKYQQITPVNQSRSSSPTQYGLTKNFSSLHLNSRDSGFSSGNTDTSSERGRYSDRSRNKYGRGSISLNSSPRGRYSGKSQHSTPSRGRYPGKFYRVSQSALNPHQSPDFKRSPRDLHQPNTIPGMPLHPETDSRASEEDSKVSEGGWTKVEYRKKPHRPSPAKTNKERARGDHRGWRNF

PAK3 (human) = PAK3 (human) (UniProt O75914)
EPHA2 (human) = EPHA2 (human) (UniProt P29317)
NUAK2 (human) = NUAK2 (human) (UniProt Q9H093)
PTK6 (human) = PTK6 (human) (UniProt Q13882)

AKT1 (human), sequence (P31749 whole entry, looked up): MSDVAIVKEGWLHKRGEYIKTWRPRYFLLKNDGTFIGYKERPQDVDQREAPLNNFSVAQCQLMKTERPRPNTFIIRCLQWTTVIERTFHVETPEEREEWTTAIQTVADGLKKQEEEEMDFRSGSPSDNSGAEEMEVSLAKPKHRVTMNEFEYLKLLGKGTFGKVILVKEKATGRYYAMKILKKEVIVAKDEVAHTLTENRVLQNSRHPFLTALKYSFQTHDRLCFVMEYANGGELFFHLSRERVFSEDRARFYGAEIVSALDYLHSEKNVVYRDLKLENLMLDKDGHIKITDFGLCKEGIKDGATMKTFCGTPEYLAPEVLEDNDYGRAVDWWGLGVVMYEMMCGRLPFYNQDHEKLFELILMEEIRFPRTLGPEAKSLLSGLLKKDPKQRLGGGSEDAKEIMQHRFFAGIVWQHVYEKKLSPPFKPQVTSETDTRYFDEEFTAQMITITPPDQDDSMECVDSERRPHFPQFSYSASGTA
PHKG1 (human), sequence (Q16816 whole entry, looked up): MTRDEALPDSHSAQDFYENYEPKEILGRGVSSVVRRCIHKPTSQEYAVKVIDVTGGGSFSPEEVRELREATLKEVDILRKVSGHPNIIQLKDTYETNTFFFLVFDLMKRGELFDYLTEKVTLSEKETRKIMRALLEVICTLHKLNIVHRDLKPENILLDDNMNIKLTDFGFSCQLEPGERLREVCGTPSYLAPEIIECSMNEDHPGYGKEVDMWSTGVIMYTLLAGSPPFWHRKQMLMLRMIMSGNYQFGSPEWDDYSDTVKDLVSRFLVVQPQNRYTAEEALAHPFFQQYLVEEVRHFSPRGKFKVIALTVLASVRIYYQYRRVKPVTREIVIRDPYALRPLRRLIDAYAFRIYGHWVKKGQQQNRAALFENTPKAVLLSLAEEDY

Question: Which results are given for O=C1Nc2ccccc2/C1=C\c1c(Cl)[nH]c2ccccc12?
Answer: residual activity (CAMK2D (human)): 86.7%; residual activity (CDK7 CCNH MNAT1 (human)): 99.7%; residual activity (AKT1 (human)): 94%; residual activity (PHKG1 (human)): 85.4%; residual activity (AURKA (human)): 108%; residual activity (PIM1 (human)): 88.5%; residual activity (ERBB2 (human)): 97.3%; residual activity (MERTK (human)): 88.2%; residual activity (MAPK3 (human)): 109%; residual activity (PRKCA (human)): 63.2%; residual activity (CSF1R (human)): 97.2%; residual activity (SLK (human)): 93.5%; residual activity (INSR (human)): 91.2%; residual activity (RAF1 (human)): 89.9%; residual activity (NEK3 (human)): 91.2%; residual activity (MAPKAPK3 (human)): 91.3%; residual activity (SRPK3 (human)): 97.1%; residual activity (EPHA8 (human)): 103%; residual activity (CSNK1G1 (human)): 99.3%; residual activity (PBK (human)): 102%; residual activity [1]: 96.6%; residual activity (NEK6 (human)): 96.5%; residual activity (MAPK11 (human)): 94.5%; residual activity (NTRK2 (human)): 95%; residual activity (GSK3B (human)): 105%; residual activity (PKN2 (human)): 96.3%; residual activity (MAP2K1 (human)): 84.8%; residual activity (STK16 (human)): 102%; residual activity (EPHB3 (human)): 91.3%; residual activity (PLK1 (human)): 95.4%; residual activity (AURKC (human)): 89.5%; residual activity (MAPKAPK5 (human)): 121%; residual activity (HIPK1 (human)): 100%; residual activity (OXSR1 (human)): 89.1%; residual activity (PRKCH (human)): 73.6%; residual activity (IRAK4 (human)): 102%; residual activity (DYRK1B (human)): 99.3%; residual activity (MLTK (human)): 99.2%; residual activity (PAK3 (human)): 98.8%; residual activity (EPHA2 (human)): 97.3%; residual activity (NUAK2 (human)): 106%; residual activity (PTK6 (human)): 76.9%

Question: Which results are given for O=C(Nc1ccc(Cl)cc1)c1ccccc1NCc1ccncc1?
Answer: residual activity (CAMK2D (human)): 101%; residual activity (CDK7 CCNH MNAT1 (human)): 95.1%; residual activity (AKT1 (human)): 97.6%; residual activity (PHKG1 (human)): 94.2%; residual activity (AURKA (human)): 84.4%; residual activity (PIM1 (human)): 98.9%; residual activity (ERBB2 (human)): 98.7%; residual activity (MERTK (human)): 79%; residual activity (MAPK3 (human)): 102%; residual activity (PRKCA (human)): 96.7%; residual activity (CSF1R (human)): 18.4%; residual activity (SLK (human)): 86.6%; residual activity (INSR (human)): 88%; residual activity (RAF1 (human)): 62.6%; residual activity (NEK3 (human)): 90.5%; residual activity (MAPKAPK3 (human)): 91.4%; residual activity (SRPK3 (human)): 100%; residual activity (EPHA8 (human)): 87.6%; residual activity (CSNK1G1 (human)): 110%; residual activity (PBK (human)): 88.5%; residual activity [1]: 91.8%; residual activity (NEK6 (human)): 97.1%; residual activity (MAPK11 (human)): 91.4%; residual activity (NTRK2 (human)): 102%; residual activity (GSK3B (human)): 89.3%; residual activity (PKN2 (human)): 93.2%; residual activity (MAP2K1 (human)): 96.8%; residual activity (STK16 (human)): 94.1%; residual activity (EPHB3 (human)): 96.9%; residual activity (PLK1 (human)): 103%; residual activity (AURKC (human)): 93.4%; residual activity (MAPKAPK5 (human)): 88.7%; residual activity (HIPK1 (human)): 92.7%; residual activity (OXSR1 (human)): 96.8%; residual activity (PRKCH (human)): 96.2%; residual activity (IRAK4 (human)): 104%; residual activity (DYRK1B (human)): 106%; residual activity (MLTK (human)): 86%; residual activity (PAK3 (human)): 95.5%; residual activity (EPHA2 (human)): 101%; residual activity (NUAK2 (human)): 137%; residual activity (PTK6 (human)): 63.6%
